In patent US4720543A, “1a-7-substituted derivatives of mitomycin and uses thereof” (priority 1985, dated 1988):

Key:
[1] = tested on: bone marrow; settings: mice, rats, cats, dogs, and rhesus monkeys; cited from earlier work
[2] = tested on: P388 leukemia; assay: murine P388 leukemia antitumor activity; format: in vivo; settings: approximate LD10 dose (M-TAG 250 mg/kg; mitomycin C 4 mg/kg), day one
Protocol: The murine P388 leukemia system, maintained intraperitoneally in female DBA/2 mice, was used to evaluate antitumor activity.
The P388 antileukemic activity of the test compound (M-TAG) was assessed by mean survival days, percentage increased life span or %ILS, and number of survivors after 45 days. The %ILS was calculated as follows:
%ILS=(T-C)/C×100 where T is the mean survival days of the treated mice and C is the mean survival days of the untreated mice

[3] = toxic single doses in normal CD2F1 mice
Protocol: Drug was administered intraperitoneally (i.p.) in a volume of 0.1 ml per 10 grams body weight.

[4] = tested on: B16 melanoma; assay: murine B16 melanoma antitumor activity; settings: M-TAG 250 mg/kg or mitomycin C 4 mg/kg, i.p. day 1
Description: Activity against the murine B16 melanoma is currently being determined.

[5] = tested on: peripheral leukocyte (WBC); assay: effects on peripheral leukocyte (WBC) count; format: in vivo, mice
Protocol: Comparative studies were performed with M-TAG and mitomycin C. Drug was dissolved in absolute ethanol, and then adjusted to a final concentration of 8% ethanol-92% sterile water. Blood samples obtained were diluted in 9.98 ml of Isoton (a neutral isotonic buffer solution) and counted in a Coulter counter after lysis with Zapoglobin (an enzyme solution which lyses red blood cells but not white blood cells). WBC counts are expressed as a percentage of values from control mice receiving drug vehicle only.

[6] = tested on: Ehrlich ascites; assay: murine Ehrlich ascites antitumor activity; format: in vivo
Protocol: The antitumor activity of M-TAG for the murine Ehrlich ascities tumor was also determined. Ehrlich ascites was maintained i.p. in female BALB/C mice. For antitumor studies, 1×10^7 Ehrlich ascites cells (in 0.10 ml) were implanted i.p. in male BD2F1 mice. Drug was administered i.p. (single LD10 dose) one day after tumor implantation.

[7] = tested on: WP2s (E. coli); assay: antibiotic activity, bacterial growth inhibition in culture; format: cell-based
Protocol: (§1) Bacteria were grown in a standard growth culture at pH 7.2. After the cultures were incubated at 37° C. overnight and diluted into fresh medium, controls and the test antibiotics dissolved in 0.3% hydroxy propylcellulose (HPC) were added at various concentrations and then reincubated overnight. The measure of antibiotic activity was determined by the amount of bacterial growth inhibition as shown by measurement of the optical density at 660 nm.

[8] = tested on: Pseudomonas Sp.; assay: as above; format: cell-based
Protocol: as §1

[9] = tested on: W3100 (E. coli); assay: as above; format: cell-based
Protocol: as §1

[10] = tested on: Staphylococcus Sp.; assay: as above; format: cell-based
Protocol: as §1

[11] = tested on: Klebsiella Pneumonia; assay: as above; format: cell-based
Protocol: as §1

[12] = tested on: Listeria Sp.; assay: as above; format: cell-based
Protocol: as §1

[13] = in vitro; settings: human, bone marrow cells
Protocol: The human bone marrow CFU-C assay measures human bone marrow cells committed to granulocyte-macrophage differentiation. This in vitro assay serves as a model for predicting the relative toxicity of an experimental drug on the granulocytic series of the bone marrow. […] Both drugs were dissolved in 0.5% DMSO, and nucleated human bone marrow cells were exposed in vitro (for 90 minutes at 37° C.) to varying concentrations of each drug. The cells were then plated in triplicate in 3% agar for the CFU-C assay, using GCT, (Giant Cell Tumor) extract (Gibco, Grand Island, N.Y.) as colony-stimulating factor.

[14] = Escherichia coli, 0.04 mcg/ml, 37° C. overnight, read-out: amount of bacterial growth inhibition (first figure)
[15] = Escherichia coli, 0.4 mcg/ml, 37° C. overnight, read-out: amount of bacterial growth inhibition (first figure)
[16] = Escherichia coli, 4.0 mcg/ml, 37° C. overnight, read-out: amount of bacterial growth inhibition (first figure)
[17] = Escherichia coli, 40 mcg/ml, 37° C. overnight, read-out: amount of bacterial growth inhibition (first figure)
[18] = Escherichia coli, 400 mcg/ml, 37° C. overnight, read-out: amount of bacterial growth inhibition (first figure)

CO[C@@]12[C@H](COC(N)=O)C3=C(C(=O)C(C)=C(N)C3=O)N1C[C@@H]1N[C@@H]12 [Mitomycin C, mitomycin C, reference compound]
toxicity in animals (in words) [1]: severe bone marrow depression and gastrointestinal damage, and were delayed in onset | % ILS [2]: 84% | Mean Survival [2]: 21 days | approximate LD10 dose (molar) ([3]; single i.p. dose): ~12 µmol/kg | LD10 dose ([3]; single i.p. dose toxic to 10% of normal mice): ~4 mg/kg | mice alive on day 20 [4]: 5 out of 10 | mice alive on day 10 ([4]; all vehicle-control mice died): All | WBC nadir, % of the control ([5]; 4 mg/kg i.p.): 76% | WBC depression / myelotoxicity (in words) ([5]; LD10-range dose i.p., days 3, 4, 5, 6 and 10): significantly greater than that produced by an equitoxic dose of M-TAG (P<0.01) | decrease in WBC counts ([5]; LD10 dose): 24% | mice alive on Day 30 ([6]; 4 mg/kg i.p.): 50% | % ILS ([6]; single approximate LD10 dose i.p. (M-TAG 250 mg/kg; mitomycin C 4 mg/kg), one day after implantation): 82% | optical density at 660 nm (figure in parentheses) ([7]; 0.04 mcg/ml): 0.16 | inhibition at 0.04 µg/mL [7, 14]: 70% | inhibition at 0.4 µg/mL [7, 15]: 86% | inhibition at 4 µg/mL [7, 16]: 84% | inhibition at 40 µg/mL [7, 17]: 85% | inhibition at 400 µg/mL [7, 18]: 85% | optical density at 660 nm (figure in parentheses) ([8]; 0.04 mcg/ml): 0.11 | optical density at 660 nm (figure in parentheses) ([8]; 0.4 mcg/ml): 0.11 | optical density at 660 nm (figure in parentheses) ([8]; 4.0 mcg/ml): 0.11 | optical density at 660 nm (figure in parentheses) ([8]; 40 mcg/ml): 0.14 | optical density at 660 nm (figure in parentheses) ([8]; 400 mcg/ml): 0.15 | inhibition at 0.04 µg/mL ([8]; Pseudomonas, 0.04 mcg/ml, 37° C. overnight, read-out: amount of bacterial growth inhibition (first figure)): 78% | inhibition at 0.4 µg/mL ([8]; Pseudomonas, 0.4 mcg/ml, 37° C. overnight, read-out: amount of bacterial growth inhibition (first figure)): 78% | inhibition at 4 µg/mL ([8]; Pseudomonas, 4.0 mcg/ml, 37° C. overnight, read-out: amount of bacterial growth inhibition (first figure)): 78% | inhibition at 40 µg/mL ([8]; Pseudomonas, 40 mcg/ml, 37° C. overnight, read-out: amount of bacterial growth inhibition (first figure)): 72% | inhibition at 400 µg/mL ([8]; Pseudomonas, 400 mcg/ml, 37° C. overnight, read-out: amount of bacterial growth inhibition (first figure)): 71% | optical density at 660 nm (figure in parentheses) ([9]; 0.04 mcg/ml): 0.13 | optical density at 660 nm (figure in parentheses) ([9]; 0.4 mcg/ml): 0.051 | optical density at 660 nm (figure in parentheses) ([9]; 4.0 mcg/ml): 0.06 | inhibition at 0.04 µg/mL [9, 14]: 74% | inhibition at 0.4 µg/mL [9, 15]: 89% | inhibition at 4 µg/mL [9, 16]: 88% | inhibition at 40 µg/mL [9, 17]: 80% | inhibition at 400 µg/mL [9, 18]: 80% | optical density at 660 nm (figure in parentheses) ([10]; 0.04 mcg/ml): 0.52 | optical density at 660 nm (figure in parentheses) ([10]; 0.4 mcg/ml): 0.03 | optical density at 660 nm (figure in parentheses) ([10]; 4.0 mcg/ml): 0.03 | optical density at 660 nm (figure in parentheses) ([10]; 40 mcg/ml): 0.041 | optical density at 660 nm (figure in parentheses) ([10]; 400 mcg/ml): 0.046 | inhibition at 0.04 µg/mL ([10]; Staphylococcus, 0.04 mcg/ml, 37° C. overnight, read-out: amount of bacterial growth inhibition (first figure)): 30% | inhibition at 0.4 µg/mL ([10]; Staphylococcus, 0.4 mcg/ml, 37° C. overnight, read-out: amount of bacterial growth inhibition (first figure)): 93% | inhibition at 4 µg/mL ([10]; Staphylococcus, 4.0 mcg/ml, 37° C. overnight, read-out: amount of bacterial growth inhibition (first figure)): 93% | inhibition at 40 µg/mL ([10]; Staphylococcus, 40 mcg/ml, 37° C. overnight, read-out: amount of bacterial growth inhibition (first figure)): 91% | inhibition at 400 µg/mL ([10]; Staphylococcus, 400 mcg/ml, 37° C. overnight, read-out: amount of bacterial growth inhibition (first figure)): 90% | optical density at 660 nm (figure in parentheses) ([11]; 0.04 mcg/ml): 0.52 | optical density at 660 nm (figure in parentheses) ([11]; 0.4 mcg/ml): 0.086 | optical density at 660 nm (figure in parentheses) ([11]; 4.0 mcg/ml): 0.06 | optical density at 660 nm (figure in parentheses) ([11]; 400 mcg/ml): 0.13 | inhibition at 0.04 µg/mL ([11]; Klebsiella pneumoniae, 0.04 mcg/ml, 37° C. overnight, read-out: amount of bacterial growth inhibition (first figure)): 30% | inhibition at 0.4 µg/mL ([11]; Klebsiella pneumoniae, 0.4 mcg/ml, 37° C. overnight, read-out: amount of bacterial growth inhibition (first figure)): 82% | inhibition at 4 µg/mL ([11]; Klebsiella pneumoniae, 4.0 mcg/ml, 37° C. overnight, read-out: amount of bacterial growth inhibition (first figure)): 87% | inhibition at 40 µg/mL ([11]; Klebsiella pneumoniae, 40 mcg/ml, 37° C. overnight, read-out: amount of bacterial growth inhibition (first figure)): 85% | inhibition at 400 µg/mL ([11]; Klebsiella pneumoniae, 400 mcg/ml, 37° C. overnight, read-out: amount of bacterial growth inhibition (first figure)): 75% | optical density at 660 nm (figure in parentheses) ([12]; 0.4 mcg/ml): 0.13 | optical density at 660 nm (figure in parentheses) ([12]; 4.0 mcg/ml): 0.03 | optical density at 660 nm (figure in parentheses) ([12]; 40 mcg/ml): 0.018 | optical density at 660 nm (figure in parentheses) ([12]; 400 mcg/ml): 0.018 | inhibition at 0.04 µg/mL ([12]; Listeria, 0.04 mcg/ml, 37° C. overnight, read-out: amount of bacterial growth inhibition (first figure)): 85% | inhibition at 0.4 µg/mL ([12]; Listeria, 0.4 mcg/ml, 37° C. overnight, read-out: amount of bacterial growth inhibition (first figure)): 95% | inhibition at 4 µg/mL ([12]; Listeria, 4.0 mcg/ml, 37° C. overnight, read-out: amount of bacterial growth inhibition (first figure)): 93% | inhibition at 40 µg/mL ([12]; Listeria, 40 mcg/ml, 37° C. overnight, read-out: amount of bacterial growth inhibition (first figure)): 96% | inhibition at 400 µg/mL ([12]; Listeria, 400 mcg/ml, 37° C. overnight, read-out: amount of bacterial growth inhibition (first figure)): 96% | activity at 1.5 h, 1 µM [13]: 30% | activity at 1.5 h, 5 µM [13]: 21% | activity at 1.5 h, 10 µM [13]: < 10%
